Measured values reported in patent US20140287997A1, “USE OF GROWTH HORMONE OR GROWTH HORMONE RECEPTOR AGONISTS TO PREVENT OR TREAT STRESS-SENSITIVE PSYCHIATRIC ILLNESS” (Massachusetts Institute of Technology, priority 2013, published 2014).

What was measured:
[1] = molecular target: T1, ghrelin receptor in BLA cells (Rattus norvegicus, UniProt O08725); assay: GH release from short-term BLA cell cultures; format: cell-based; details: versus vehicle, P<0.05
T1 construct: short-term cultures were generated of BLA cells and measured GH protein in the media following treatment with either MK-0677 or vehicle; endogenous in cells; host or cells: short-term primary cultures of basolateral amygdala (BLA) cells
T1 sequence (O08725 whole entry): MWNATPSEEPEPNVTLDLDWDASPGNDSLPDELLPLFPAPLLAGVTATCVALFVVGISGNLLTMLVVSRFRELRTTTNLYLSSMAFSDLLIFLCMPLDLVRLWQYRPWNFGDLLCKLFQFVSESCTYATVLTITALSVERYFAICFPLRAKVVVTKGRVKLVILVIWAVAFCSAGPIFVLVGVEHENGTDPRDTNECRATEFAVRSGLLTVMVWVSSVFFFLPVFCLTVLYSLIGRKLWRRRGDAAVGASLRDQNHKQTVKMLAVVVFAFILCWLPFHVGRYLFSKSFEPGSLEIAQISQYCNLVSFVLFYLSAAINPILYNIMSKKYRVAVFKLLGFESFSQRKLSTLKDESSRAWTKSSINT
Description: To determine whether ghrelin receptor stimulation in amygdala triggers the release of GH as it does from the pituitary,^43 short-term cultures were generated of BLA cells and measured GH protein in the media following treatment with either MK-0677 or vehicle.

[2] = system: GH-mediated signaling in the BLA; assay: Auditory fear conditioning after intra-BLA AAV (GHA or GFP) and 10 days systemic MK-0677 or saline; format: in vivo, rat; details: repeated systemic MK-0677 for 10 days
Description: An AAV viral construct to overexpress a mutant form of the rat GH protein (GHA) that acts as a functional antagonist to endogenous GH was generated.^49,50 Following infusion of AAV to overexpress either GHA or a control protein (GFP) (FIG. 5f), rats were permitted to recover for 5 weeks. After recovery, rats that were infused with GHA received daily injections of either the ghrelin receptor agonist MK-0677 (MK) or saline (SAL) for 10 days. […] At 24 h after the final injection, all rats were subjected to auditory fear conditioning, followed by assessment of long-term auditory fear memory in a subsequent session 48 h later.

rats [3] = assay: Sucrose preference (measuring hedonia) as a measure of depression; format: in vivo, rat; details: repeated ghrelin receptor stimulation
Description: Sucrose preference (measuring hedonia) as a measure of depression with low dose MK0677 or high dose MK0677 was also examined. […] Repeated ghrelin receptor stimulation (mimicking one effect of chronic stress, which is to enhance the circulating levels of ghrelin and thus ghrelin signaling) induces depressive behaviors in rats.

rats [4] = assay: Forced swim as a measure of depression; format: in vivo, rat; details: high dose, repeated ghrelin receptor stimulation
Description: Forced swim as a measure of depression was also examined. […] Repeated ghrelin receptor stimulation (mimicking one effect of chronic stress, which is to enhance the circulating levels of ghrelin and thus ghrelin signaling) induces depressive behaviors in rats.

GH protein released in the media [1]: significantly elevated release of GH
SMILES: CC(C)(N)C(=O)N[C@H](COCc1ccccc1)C(=O)N1CCC2(CC1)CN(S(C)(=O)=O)c1ccccc12 [MK-0677]
long-term auditory fear memory [2]: fear-enhancing effects
sucrose preference (hedonia) (rats [3]; high dose): led to anhedonia
sucrose preference (hedonia) (rats [3]; low dose): led to anhedonia
forced swim behaviour (rats [4]): led to immobility in the forced swim
